# Data from US20100055032A1, “METHODS FOR […] IMAGING USING NANOP[…] AGENTS” (NanoScan Imaging LLC, priority 2001, published 2010).
# Like-named read-outs stand apart in the source and are kept apart here.
# Tests used:
# [1] = for Percent Uptake (%) Aorta / Percent Uptake (%) Brain / Percent Uptake (%) Cardiac / Percent Uptake (%) Liver / Percent Uptake (%) Portal Vein / Percent Uptake (%) Posterior Vena Cava / Percent Uptake (%) Spleen: pre-treatment = 100.0
# Text: Animals used in this study were six (6) male New Zealand white rabbits obtained from UCD. At the time of initiation, the rabbits were adult in age and weighed approximately 2.69±0.06 kg. The animals were housed separately in cages and fed a cholesterol enriched diet (CED) (TestDiet®—Richmond, Ind.) dry laboratory diet. Filtered tap water was provided ad labium. The animals were acclimated for a minimum of 7 days prior to the start of the study.
# The study design comprised putting the rabbits on a CED for 5 weeks prior to the carotid overstretch procedure. At week 5, the carotid overstretch procedure was performed along with anticoagulant therapy (described below). The rabbits were then placed back on the CED with the anticoagulant therapy for an additional two (2) weeks. The rabbits were then anesthetized and Computer Tomography (CT) studies were performed. An iodinated nanoparticle, PH-50, having a mean diameter of 282 nm and a concentration of 15% (w/v) was evaluated in intact male rabbits with an average weight of 2.69±0.06 kg. Six (6) mL/kg of PH-50 was infused over ninety (90) minutes intravenously (IV) via an ear vein. The rabbits were then euthanized and necropsied after the 8 hour CT study.
# The CED diet consisted of Purina® 5321 (a standard high-quality rabbit chow that is widely available) supplemented with 2% cholesterol, 5% coconut oil and 0.5% sodium cholate. The CED was formulated by and purchased from TestDiet® (Richmond, Ind.).
# The carotid overstretch procedure was performed as follows: Rabbits were pretreated with an appropriate anticoagulant (heparin) prior to the procedure, and maintained on aspirin (20 mg/kg) for 14 days after the procedure. On the day of the procedure, the rabbits were boxed down and ventilated appropriately. The left carotid artery was exposed using standard techniques known in the art. A small puncture was made distal to the site to be overstretched, and a balloon catheter was placed in the artery. The vessel diameter was estimated from direct visualization. The balloon overstretch injury was performed using balloon diameters 30% greater than the baseline arterial diameter at the target areas three inflations of the balloon at approximately 6 atmospheric pressure for 30 seconds each, with a one-minute interval between inflations. Afterwards, the catheter was withdrawn and the rabbits allowed to recover for 14 days prior to the administration of PH-50. The animals were maintained on the CED and aspirin therapy during the 14-day recovery period. Fourteen (14) days following the overstretch procedure, the rabbits were anesthetized and maintained under anesthesia during PH-50 infusion and the CT scan procedures. […] In addition, whole body CT scans were made at contiguous 5 mm slices (at pretreatment, 4 hours and 8 hour studies).
# The computer tomography (CT) imaging was performed with a GE® Hi-Speed Computed Tomography Scanner (Milwaukee, Wis.). The CT images were stored as DICOM3 images in GE® optical disks, CD-Rom. The parameter for CT imaging were 1 mm contiguous slices at 120 kvp, 1.5 seconds at 150 mA. CT scans of the entire rabbit were performed (from rostral nasal area to pelvis at specified times).
# [2] = Particle size of the nanoparticle; type: physicochemical; settings: iodinated nanoparticle, 15% (w/v)
# [3] = test system: atherosclerotic plaques; assay: Correlation of CT/Faxitron images with histopathology (Histopathology Correlation Scale); type: in vivo, New Zealand white rabbits; design: key to HCS score, renal images: 0=no correlation; 5=direct correlation
# Text: The primary focus of this study was to study the potential uptake by atherosclerotic plaques of the compound PH-50. The spatial resolution of the CT scanner used in these experiments was approximately 0.15 mm and determination of plaque formation and PH-50 uptake were correlated with histopathology. The timetable for the schedule of CT studies for rabbit numbers 3081 and 3086 are outlined in Table 8.
# All sets of data were carefully harvested, analyzed and then correlated with histopathology. Images were collected, labeled as either “carotid”, “Lung”, “Spleen”, “Liver”, “Cardiac”, “Renal” or “Faxitron images of the carotids,” and then graded according to a Histopathology Correlation Scale (HCS), where 0=no correlation and 5=direct correlation.
# [4] = Rabbit No. 3081, 18 mL/90 min IV infusion (900 mg/kg), 255 min
# [5] = Rabbit No. 3081, 18 mL/90 min IV infusion (900 mg/kg), 495 min
# [6] = Rabbit No. 3086, 18 mL/90 min IV infusion (900 mg/kg), 250 min
# [7] = Rabbit No. 3086, 18 mL/90 min IV infusion (900 mg/kg), 480 min
smiles,measurement,setting,value
"CCOC(=O)CCCCCOC(=O)c1c(I)c(NC(C)=O)c(I)c(NC(C)=O)c1I [PH-50, 6-ethoxy-6-oxohexy-3,5-bis(acetylamino)-2,4,6-triiodobenzoate]",Hounsfield Units (HU) Aorta,[1]; [4],56.5 HU
same,Hounsfield Units (HU) Brain,[1]; [4],49.1 HU
same,Hounsfield Units (HU) Cardiac,[1]; [4],136.2 HU
same,Hounsfield Units (HU) Liver,[1]; [4],169.3 HU
same,Hounsfield Units (HU) Portal Vein,[1]; [4],56.4 HU
same,Hounsfield Units (HU) Posterior Vena Cava,[1]; [4],95.3 HU
same,Hounsfield Units (HU) Spleen,[1]; [4],449.8 HU
same,Hounsfield Units (HU) Aorta,[1]; [5],89.3 HU
same,Hounsfield Units (HU) Brain,[1]; [5],36.8 HU
same,Hounsfield Units (HU) Cardiac,[1]; [5],138.8 HU
same,Hounsfield Units (HU) Liver,[1]; [5],110.6 HU
same,Hounsfield Units (HU) Portal Vein,[1]; [5],55.4 HU
same,Hounsfield Units (HU) Posterior Vena Cava,[1]; [5],87.8 HU
same,Hounsfield Units (HU) Spleen,[1]; [5],351.2 HU
same,Percent Uptake (%) Aorta,"[1]; Rabbit No. 3081, 255 min",84.0%
same,Percent Uptake (%) Brain,"[1]; Rabbit No. 3081, 255 min",164.2%
same,Percent Uptake (%) Cardiac,"[1]; Rabbit No. 3081, 255 min",383.3%
same,Percent Uptake (%) Liver,"[1]; Rabbit No. 3081, 255 min",383.9%
same,Percent Uptake (%) Portal Vein,"[1]; Rabbit No. 3081, 255 min",128.5%
same,Percent Uptake (%) Posterior Vena Cava,"[1]; Rabbit No. 3081, 255 min",141.0%
same,Percent Uptake (%) Spleen,"[1]; Rabbit No. 3081, 255 min",510.6%
same,Percent Uptake (%) Aorta,"[1]; Rabbit No. 3081, 495 min",132.7%
same,Percent Uptake (%) Brain,"[1]; Rabbit No. 3081, 495 min",123.1%
same,Percent Uptake (%) Cardiac,"[1]; Rabbit No. 3081, 495 min",250.8%
same,Percent Uptake (%) Liver,"[1]; Rabbit No. 3081, 495 min",250.8%
same,Percent Uptake (%) Portal Vein,"[1]; Rabbit No. 3081, 495 min",126.2%
same,Percent Uptake (%) Posterior Vena Cava,"[1]; Rabbit No. 3081, 495 min",129.9%
same,Percent Uptake (%) Spleen,"[1]; Rabbit No. 3081, 495 min",398.6%
same,Hounsfield Units (HU) Aorta,[1]; [6],64.0 HU
same,Hounsfield Units (HU) Brain,[1]; [6],31.3 HU
same,Hounsfield Units (HU) Cardiac,[1]; [6],220.2 HU
same,Hounsfield Units (HU) Liver,[1]; [6],189.4 HU
same,Hounsfield Units (HU) Portal Vein,[1]; [6],54.5 HU
same,Hounsfield Units (HU) Posterior Vena Cava,[1]; [6],96.5 HU
same,Hounsfield Units (HU) Spleen,[1]; [6],786.6 HU
same,Hounsfield Units (HU) Aorta,[1]; [7],24.1 HU
same,Hounsfield Units (HU) Brain,[1]; [7],34.7 HU
same,Hounsfield Units (HU) Cardiac,[1]; [7],200.3 HU
same,Hounsfield Units (HU) Liver,[1]; [7],98.2 HU
same,Hounsfield Units (HU) Portal Vein,[1]; [7],28.1 HU
same,Hounsfield Units (HU) Posterior Vena Cava,[1]; [7],58.6 HU
same,Hounsfield Units (HU) Spleen,[1]; [7],228.5 HU
same,Percent Uptake (%) Aorta,"[1]; Rabbit No. 3086, 250 min",186.6%
same,Percent Uptake (%) Brain,"[1]; Rabbit No. 3086, 250 min",81.3%
same,Percent Uptake (%) Cardiac,"[1]; Rabbit No. 3086, 250 min",320.1%
same,Percent Uptake (%) Liver,"[1]; Rabbit No. 3086, 250 min",384.2%
same,Percent Uptake (%) Portal Vein,"[1]; Rabbit No. 3086, 250 min",122.7%
same,Percent Uptake (%) Posterior Vena Cava,"[1]; Rabbit No. 3086, 250 min",204.9%
same,Percent Uptake (%) Spleen,"[1]; Rabbit No. 3086, 250 min",792.9%
same,Percent Uptake (%) Aorta,"[1]; Rabbit No. 3086, 480 min",70.3%
same,Percent Uptake (%) Brain,"[1]; Rabbit No. 3086, 480 min",90.1%
same,Percent Uptake (%) Cardiac,"[1]; Rabbit No. 3086, 480 min",291.1%
same,Percent Uptake (%) Liver,"[1]; Rabbit No. 3086, 480 min",199.2%
same,Percent Uptake (%) Portal Vein,"[1]; Rabbit No. 3086, 480 min",63.3%
same,Percent Uptake (%) Posterior Vena Cava,"[1]; Rabbit No. 3086, 480 min",124.4%
same,Percent Uptake (%) Spleen,"[1]; Rabbit No. 3086, 480 min",230.3%
same,adverse reactions during the infusion,"[1]; anesthetized rabbits, 6 mL/kg IV over 90 min",No adverse reactions
same,blood pressure or heart rate,"[1]; anesthetized rabbits, during infusion of 6 mL/kg IV over 90 min",no increase
same,mean diameter,[2],282 nm
same,uptake by atherosclerotic plaques,"[3]; CT with histopathology, cholesterol-fed rabbits",taken up by atherosclerotic plaques in the heart and lung
same,"HCS score, carotid images",[3]; left carotid of rabbit no. 3086,2
same,"HCS score, Faxitron images",[3]; mid region of the left carotid artery of rabbit no. 3086,3
same,"HCS score, cardiac images","[3]; plaques in the coronary arteries and myocardium of rabbit no. 3086, 4 and 8 hours post-injection",4
same,"HCS score, renal images","[3]; renal artery of rabbit no. 3086, area not submitted for histopathology",0
same,"HCS score, liver images","[3]; small arterioles of the liver of rabbit no. 3086, 4 hours post-injection",3
same,"HCS score, lung images","[3]; small arterioles of the lung, 4 hours post-injection",4
same,"HCS score, spleen images","[3]; small arterioles of the spleen of rabbit no. 3086, 4 hours post-injection",4
